Here are results for four compounds from patent US11434535B2, “Centromere/kinetochore protein genes for cancer diagnosis, prognosis and treatment selection” (The Regents of the University of California, priority 2014, dated 2022).

“Also recorded” adds a separate entry of the source.

The subject of one assay is gastric cancers. The experiment in a line: K-M Plotter meta-analysis on chemo-sensitivity, gastric cancer. It counts as in vivo, human. Conditions: gastric cancer patients.
The test system of assay [1] is CCLE (Cancer Cell Line Encyclopedia) cell lines. Briefly: CCLE cell lines: IC50 of Topo I inhibitors versus CES value. Conditions: CCLE cell lines binned into CES quartiles. In kind it is cell-based. The text has this:
We mined the Cancer Cell Line Encyclopedia (CCLE) data, which contains information on both drug treatment and gene expression (Barretina et al., 2012). CCLE cell lines were binned into quartiles according to their CES values, we compared the top and bottom CES quartiles for the IC50 of the Topo I inhibitors and DNA damaging agents irinotecan and topotecan.
The Statistical Analysis of Microarrays (SAM) Excel add-on package (the website at www-stat.stanford.edu/˜tibs/SAM/) was used to identify differences between normal and tumor tissues in expression levels of CEN/KT genes (FDR≤0.05 and fold changes ≥2). Sample clustering was performed on the CEN/KT gene expression profiles using hierarchical clustering in Cluster 3.0 and Java Treeview 1.1.6r4 to group samples by centroid. For CCLE drug sensitivity, analysis was performed in Excel (Microsoft) and GraphPad. Kaplan-Meier survival curves for the CES system were generated for patients to evaluate differences in disease-free survival (DFS), stratified into groups of high (upper tertile), intermediate (middle tertile) and low (lower tertile) CES to evaluate differences in disease-free survival (DFS). […] Five-year survival was analyzed by chi-square test for significance.

The test system of a further assay is ER+ breast cancer. Briefly: K-M Plotter meta-analysis on chemo-sensitivity, ER+ breast cancer relapse-free survival. Conditions: ER+ breast cancer patients under the named therapy.
The test system of assay [2] is late stage ovarian cancers. Briefly: K-M Plotter meta-analysis on chemo-sensitivity, ovarian cancer overall survival. In kind it is in vivo, human. Conditions: ovarian cancer patients, mostly late stage, under the named adjuvant therapy.
Source text: (§1) To address small sample sizes in individual datasets when predicting drug sensitivity, we performed meta-analysis on chemo-sensitivity for several cancer types using K-M Plotter.
(§2) For meta-analysis using K-M Plotter for prognosis, we chose to use the top CES terile as high CES group, and the rest as low CES group. For meta-analysis on sensitivity to adjuvant therapies using K-M Plotter, we chose to use automatically computed best performing CES threshold for patient stratification in all dataset to increase detection sensitivity, even though tertile or median method gave similar results with statistical significance for many datasets. The K-M Plotter software only incorporates genes with probes present on both U133A+B to ensure comparability between datasets for meta-analysis, thus it excluded 7 CEN/KT genes including CENP-H, -W, -L, -K, -P, SPC24 and NUF2, of which 5 are also CES genes. Therefore, we used the 9 remaining CES genes, e.g., CENP-A, HJURP, MIS18B, CENP-N, CENP-M, CENP-U, ZWINT, NDC80, and SPC25, as a simplified version of the CES when using K-M Plotter.

Source text for ER+ breast cancer: as §1, §2
Source text for gastric cancers: as §1, §2

Take `O=c1[nH]cc(F)c(=O)[nH]1` [5-FU, 5-fluorouracil]: the “prediction power of CES for sensitivity” value with gastric cancers is “no significant prediction power”.
In the case of `CCc1c2c(nc3ccc(OC(=O)N4CCC(N5CCCCC5)CC4)cc13)-c1cc3c(c(=O)n1C2)COC(=O)[C@]3(O)CC` [irinotecan], the “average IC50, top CES quartile compared to bottom CES quartile” value in assay [1] was “significantly lower IC50s; also recorded: significantly more sensitive”.
As to `CC/C(=C(\c1ccccc1)c1ccc(OCCN(C)C)cc1)c1ccccc1` [tamoxifen], the “HR associated with high CES, relapse-free survival (RFS)” value in the assay on ER+ breast cancer amounted to 1.80.
Consider `CC[C@@]1(O)C(=O)OCc2c1cc1n(c2=O)Cc2cc3c(CN(C)C)c(O)ccc3nc2-1` [topotecan], for which, in assay [1], the “average IC50, top CES quartile compared to bottom CES quartile” value is on record as “significantly lower IC50s; also recorded: significantly more sensitive”. In addition, the “HR associated with high CES, overall survival” value in assay [2] was “.63”.
